Measurements published in ChEMBL document CHEMBL1201862, “PubChem BioAssay data set” (2004).
Calls of active or inactive are those of the source.

Experiments:
[1] = reduced cellular PGC1a acetyl-lysine signal – cell-based, cherry-picked samples, dose response (AID 720514); assay type: functional;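 further: potency may reflect raised or lowered acetylation signal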
[2] = system: Vero; test: cells; assay type: functional; conditions: Chlorocebus sabaeus
[3] = viability of HCT116 lacking mutant beta-catenin – cell-based, human colon tumor, dose response (AID 1045); assay type: functional;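 further: HCT116 colon tumor cells with beta catenin knocked out; cells exposed to compound for 60 hours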
[4] = biological target: T1, Protein RecA (Mycobacterium tuberculosis, UniProt P9WHJ3); test: Fluorescence Cell-Free Homogeneous Dose Retest to Identify Inhibitors of RecA-Intein Splicing Activity. [Related pubchem assays (depositor defined):AID2097, AID2223, AID489010, AID492950]; assay type: functional
T1 sequence (P9WHJ3 whole entry): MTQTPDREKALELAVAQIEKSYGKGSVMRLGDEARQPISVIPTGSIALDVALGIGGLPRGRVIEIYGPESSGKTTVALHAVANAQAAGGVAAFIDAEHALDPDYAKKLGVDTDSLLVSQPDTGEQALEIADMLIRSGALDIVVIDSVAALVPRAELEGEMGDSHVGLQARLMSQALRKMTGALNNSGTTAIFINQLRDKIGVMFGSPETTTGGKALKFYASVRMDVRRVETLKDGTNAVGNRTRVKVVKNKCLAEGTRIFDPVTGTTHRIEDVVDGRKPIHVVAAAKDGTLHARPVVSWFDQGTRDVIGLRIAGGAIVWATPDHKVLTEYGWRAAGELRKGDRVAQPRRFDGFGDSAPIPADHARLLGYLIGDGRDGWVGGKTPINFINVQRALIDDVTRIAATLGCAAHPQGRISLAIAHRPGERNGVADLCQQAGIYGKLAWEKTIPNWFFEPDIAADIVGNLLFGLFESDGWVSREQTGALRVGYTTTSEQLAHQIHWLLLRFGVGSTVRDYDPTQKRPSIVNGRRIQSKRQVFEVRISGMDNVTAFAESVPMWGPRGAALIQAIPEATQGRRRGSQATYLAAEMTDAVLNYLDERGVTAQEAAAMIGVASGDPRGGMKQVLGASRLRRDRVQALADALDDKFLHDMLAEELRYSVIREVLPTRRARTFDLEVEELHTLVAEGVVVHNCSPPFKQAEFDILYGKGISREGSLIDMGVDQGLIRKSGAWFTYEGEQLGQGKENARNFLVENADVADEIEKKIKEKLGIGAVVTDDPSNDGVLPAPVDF

[5] = system: Vero; test: cells; assay type: functional, cell-based; conditions: Chlorocebus sabaeus
[6] = system: INS1; test: INS-1E survival protection against cytokine death – cell-based, luminescence, retest, dose response (AID 449756); assay type: functional; conditions: Rattus norvegicus;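 further: cell death triggered by IL-1 beta plus TNF-alpha plus IFN-gamma mixture; protective hits raise ATP signal compared with cytokine alone wells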
[7] = biological target: T2, Replicative DNA helicase DnaB (Mycobacterium tuberculosis, UniProt P9WMR3); test: DnaB intein splicing inhibitors, dose response, biochemical, cell-free fluorescence (AID 449749); assay type: functional
T2 sequence (P9WMR3 whole entry): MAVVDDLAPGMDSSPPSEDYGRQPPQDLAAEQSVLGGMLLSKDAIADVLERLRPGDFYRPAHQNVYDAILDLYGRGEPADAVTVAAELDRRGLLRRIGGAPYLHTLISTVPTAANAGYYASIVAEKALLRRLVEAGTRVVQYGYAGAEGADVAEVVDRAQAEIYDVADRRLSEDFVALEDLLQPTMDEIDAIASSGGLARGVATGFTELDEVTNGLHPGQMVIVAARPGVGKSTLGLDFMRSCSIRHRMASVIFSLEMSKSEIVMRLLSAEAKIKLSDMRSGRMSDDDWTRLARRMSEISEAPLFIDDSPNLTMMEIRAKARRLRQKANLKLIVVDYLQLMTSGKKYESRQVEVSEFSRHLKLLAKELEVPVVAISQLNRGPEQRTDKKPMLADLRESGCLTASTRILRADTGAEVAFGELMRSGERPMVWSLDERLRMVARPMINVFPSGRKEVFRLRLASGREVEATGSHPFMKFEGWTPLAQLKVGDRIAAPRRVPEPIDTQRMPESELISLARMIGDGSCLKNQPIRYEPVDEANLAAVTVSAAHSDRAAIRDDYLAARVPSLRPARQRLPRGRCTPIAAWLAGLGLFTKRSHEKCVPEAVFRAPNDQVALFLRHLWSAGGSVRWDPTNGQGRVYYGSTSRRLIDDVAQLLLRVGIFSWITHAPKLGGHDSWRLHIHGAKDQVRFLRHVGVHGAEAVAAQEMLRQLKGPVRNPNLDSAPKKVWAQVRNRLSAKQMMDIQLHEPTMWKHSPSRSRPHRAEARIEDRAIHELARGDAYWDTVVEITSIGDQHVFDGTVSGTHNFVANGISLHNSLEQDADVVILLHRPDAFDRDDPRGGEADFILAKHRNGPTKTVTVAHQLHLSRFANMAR

[8] = Luminescence Cell-Based Dose Retest to Confirm Inhibitors of Cancer Stem Cells. [Related pubchem assays (depositor defined):AID2717, AID2721]; assay type: functional; conditions: Homo sapiens
[9] = Fluorescence-based cell-based high throughput dose response assay for inhibitors of the interaction of nucleotide-binding oligomerization domain containing 2 (NOD2) and the receptor-interacting serine-threonine kinase 2 (RIPK2).; assay type: functional, Homo sapiens
[10] = viability of PTEN-deleted HCT116 cells – cell-based, HCT116 PTEN knockout, dose response (AID 1047); assay type: functional;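 further: HCT116 colon tumor cells with PTEN knocked out; cells exposed to compound for 60 hours before readout; potency for loss of cell viability measured by luminescence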
[11] = biological target: T3, Caspase-3 (Homo sapiens, UniProt P42574); assay type: functional;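 further: Dose-response selectivity test against caspase-3 for candidate inhibitors of sentrin-specific proteases (SENPs)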
T3 sequence (P42574 whole entry): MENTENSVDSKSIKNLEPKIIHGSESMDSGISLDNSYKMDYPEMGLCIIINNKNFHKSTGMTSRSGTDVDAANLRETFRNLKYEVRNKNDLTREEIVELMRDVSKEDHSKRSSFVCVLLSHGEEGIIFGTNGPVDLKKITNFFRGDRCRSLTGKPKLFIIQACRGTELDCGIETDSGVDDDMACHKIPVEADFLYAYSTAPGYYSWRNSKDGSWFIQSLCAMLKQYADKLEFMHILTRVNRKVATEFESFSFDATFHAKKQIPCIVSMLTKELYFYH

[12] = biological target: T4, Sentrin-specific protease 7 (Homo sapiens, UniProt Q9BQF6); assay type: functional;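 further: Luminescence-based dose-response confirmation of ultra-high-throughput screening hits, measuring inhibition of SENP7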
T4 sequence (Q9BQF6 whole entry): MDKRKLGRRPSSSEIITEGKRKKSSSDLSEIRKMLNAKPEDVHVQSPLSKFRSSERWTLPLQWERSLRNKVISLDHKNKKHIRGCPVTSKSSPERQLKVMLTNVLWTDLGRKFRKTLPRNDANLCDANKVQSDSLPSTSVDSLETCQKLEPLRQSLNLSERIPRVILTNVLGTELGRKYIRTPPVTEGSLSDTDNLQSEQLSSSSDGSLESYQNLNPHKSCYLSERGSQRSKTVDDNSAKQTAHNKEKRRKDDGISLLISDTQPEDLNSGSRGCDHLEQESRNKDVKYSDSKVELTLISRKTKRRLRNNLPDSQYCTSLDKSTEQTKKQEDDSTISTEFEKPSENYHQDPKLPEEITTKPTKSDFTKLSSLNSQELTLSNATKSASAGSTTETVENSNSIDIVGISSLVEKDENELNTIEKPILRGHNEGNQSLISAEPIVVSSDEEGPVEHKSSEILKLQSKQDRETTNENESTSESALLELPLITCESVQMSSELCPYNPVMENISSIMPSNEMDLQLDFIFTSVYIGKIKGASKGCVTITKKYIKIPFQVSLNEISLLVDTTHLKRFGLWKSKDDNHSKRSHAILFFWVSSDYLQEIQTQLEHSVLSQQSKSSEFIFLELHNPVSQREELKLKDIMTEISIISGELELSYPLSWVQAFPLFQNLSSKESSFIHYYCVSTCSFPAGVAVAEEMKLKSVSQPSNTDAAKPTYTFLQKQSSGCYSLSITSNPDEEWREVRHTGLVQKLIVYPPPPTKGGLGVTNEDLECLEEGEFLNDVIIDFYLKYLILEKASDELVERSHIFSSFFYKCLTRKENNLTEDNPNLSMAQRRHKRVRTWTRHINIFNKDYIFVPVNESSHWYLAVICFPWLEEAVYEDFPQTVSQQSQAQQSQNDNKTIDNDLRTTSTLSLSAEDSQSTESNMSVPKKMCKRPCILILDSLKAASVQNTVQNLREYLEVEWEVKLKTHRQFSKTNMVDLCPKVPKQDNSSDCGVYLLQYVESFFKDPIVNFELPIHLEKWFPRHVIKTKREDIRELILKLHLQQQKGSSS

[13] = biological target: T5, Sentrin-specific protease 6 (Homo sapiens, UniProt Q9GZR1); assay type: functional;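 further: Luminescence-based dose-response confirmatory assay of SENP6 inhibition, following up an ultra-high-throughput screen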
T5 sequence (Q9GZR1 whole entry): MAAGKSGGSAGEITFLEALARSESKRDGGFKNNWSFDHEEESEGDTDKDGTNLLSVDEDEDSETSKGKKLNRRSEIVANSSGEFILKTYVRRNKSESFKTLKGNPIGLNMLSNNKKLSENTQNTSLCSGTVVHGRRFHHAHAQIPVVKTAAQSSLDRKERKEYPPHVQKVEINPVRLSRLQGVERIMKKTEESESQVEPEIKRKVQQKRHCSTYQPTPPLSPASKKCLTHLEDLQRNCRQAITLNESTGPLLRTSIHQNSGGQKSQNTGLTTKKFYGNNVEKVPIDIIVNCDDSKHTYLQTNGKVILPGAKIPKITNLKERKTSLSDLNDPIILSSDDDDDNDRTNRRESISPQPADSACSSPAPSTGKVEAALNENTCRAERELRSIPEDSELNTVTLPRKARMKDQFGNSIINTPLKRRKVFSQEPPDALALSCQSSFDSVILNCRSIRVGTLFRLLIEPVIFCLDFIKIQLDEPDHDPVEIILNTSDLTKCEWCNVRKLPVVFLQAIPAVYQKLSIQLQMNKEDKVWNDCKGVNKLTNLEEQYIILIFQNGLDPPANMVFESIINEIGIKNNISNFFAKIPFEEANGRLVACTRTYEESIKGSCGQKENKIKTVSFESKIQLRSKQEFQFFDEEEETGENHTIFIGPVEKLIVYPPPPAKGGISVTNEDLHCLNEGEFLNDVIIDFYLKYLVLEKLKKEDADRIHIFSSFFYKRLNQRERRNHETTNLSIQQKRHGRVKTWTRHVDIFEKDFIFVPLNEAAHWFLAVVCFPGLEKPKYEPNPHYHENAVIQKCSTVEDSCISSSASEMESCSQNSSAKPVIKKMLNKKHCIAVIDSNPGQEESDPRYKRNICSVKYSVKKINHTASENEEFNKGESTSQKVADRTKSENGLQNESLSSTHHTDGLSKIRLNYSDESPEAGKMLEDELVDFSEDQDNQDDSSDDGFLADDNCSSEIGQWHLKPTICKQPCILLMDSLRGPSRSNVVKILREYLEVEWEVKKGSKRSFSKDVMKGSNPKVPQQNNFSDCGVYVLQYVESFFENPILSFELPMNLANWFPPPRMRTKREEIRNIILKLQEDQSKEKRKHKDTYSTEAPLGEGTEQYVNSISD

[14] = biological target: T6, Sentrin-specific protease 8 (Homo sapiens, UniProt Q96LD8); assay type: functional;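 further: luminescence read-out of SENP8 inhibition, dose-response confirmation following an ultra-high-throughput screen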
T6 sequence (Q96LD8 whole entry): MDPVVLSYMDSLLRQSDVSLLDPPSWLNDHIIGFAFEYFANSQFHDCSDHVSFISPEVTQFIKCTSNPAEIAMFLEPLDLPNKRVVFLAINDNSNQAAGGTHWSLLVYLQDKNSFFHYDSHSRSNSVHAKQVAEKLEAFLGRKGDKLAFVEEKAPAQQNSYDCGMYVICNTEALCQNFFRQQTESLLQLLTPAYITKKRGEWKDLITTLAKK

[15] = intracellular Trypanosoma cruzi inhibitors in host cells – cell-based, plate reader, cherry-pick samples, set 3, dose response (AID 651818); assay type: functional;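 further: compounds incubated with infected cells for about four days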
[16] = biological target: T7, Microphthalmia-associated transcription factor (Homo sapiens, UniProt O75030); test: reducers of TRPM1 reporter luminescence, concentration series – cell-based, SK-MEL-5, cherry-picked, set 3, MITF inhibitor project, dose response (AID 493073); assay type: functional;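 further: SK-MEL-5 melanoma cells with luciferase driven by the MITF target TRPM1 promoter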
T7 sequence (O75030 whole entry): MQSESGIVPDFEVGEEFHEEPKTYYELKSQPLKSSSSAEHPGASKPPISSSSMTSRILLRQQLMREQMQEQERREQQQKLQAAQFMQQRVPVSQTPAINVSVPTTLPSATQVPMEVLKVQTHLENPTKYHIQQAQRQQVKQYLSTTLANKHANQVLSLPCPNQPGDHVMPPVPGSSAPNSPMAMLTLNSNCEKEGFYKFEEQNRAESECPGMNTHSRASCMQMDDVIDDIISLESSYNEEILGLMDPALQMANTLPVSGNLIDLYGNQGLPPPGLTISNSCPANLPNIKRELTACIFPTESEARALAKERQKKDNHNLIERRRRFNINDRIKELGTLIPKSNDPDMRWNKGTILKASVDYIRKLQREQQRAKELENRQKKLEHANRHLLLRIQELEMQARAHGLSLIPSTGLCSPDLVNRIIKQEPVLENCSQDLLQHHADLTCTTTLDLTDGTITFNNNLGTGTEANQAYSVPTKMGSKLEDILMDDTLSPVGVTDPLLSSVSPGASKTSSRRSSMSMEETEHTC

SMILES: O=C(NCc1cccnc1)/C(=C\c1ccc(-c2cccc(Cl)c2)o1)S(=O)(=O)c1ccccc1
- AC50 [1]: 15 µM (active)
- CC50 [2]: 9.17 µM (active)
- EC50 [3]: 2.86 µM (active)
- EC50 [4]: 17.8 µM (active)
- IC50 [5]: 22.8 µM (active)
- AC50 [6]: 7.76 µM (active)
- AC50 [7]: 13.7 µM (active)
- AC50 [8]: 2.35 µM (active)
- IC50 ([9]; Homo sapiens): 10.8 µM (inactive)
- EC50 [10]: 3.2 µM (active)

SMILES: CC(=O)OCC12CC(OC(=O)CC(C)C)C(C)=CC1OC1C(O)C(OC(C)=O)C2(C)C12CO2 (centres undefined)
- IC50 [9]: 49.8 µM (inactive)

SMILES: Cc1n[nH]c(O)c1N=Nc1ccc(Br)c(Cl)c1
- IC50 [11]: 2.41 µM (active)
- IC50 [12]: 2.2 µM (active)
- IC50 [13]: 3.79 µM (active)
- IC50 [14]: 2.43 µM (active)

SMILES: C[C@@H]1CCCCO[C@H](CN(C)C(=O)Nc2ccccc2)[C@@H](C)CN([C@H](C)CO)C(=O)c2cc(NC(=O)Nc3ccc(C(F)(F)F)cc3)ccc2O1
- AC50 [15]: 4.2 µM (active)

SMILES: Cc1ccc(S(=O)(=O)N(C)C[C@H]2Oc3c(NC(=O)c4ccncc4)cccc3C(=O)N([C@H](C)CO)C[C@@H]2C)cc1
- AC50 [15]: 6.3 µM (active)

SMILES: C[C@@H]1CN([C@H](C)CO)C(=O)Cc2cc(NC(=O)Cc3ccccc3)ccc2O[C@@H]1CN(C)Cc1ccc(-c2ccccc2)cc1
- AC50 [15]: 6.35 µM (active)

SMILES: C[C@@H]1CN([C@@H](C)CO)C(=O)c2cccc(NS(=O)(=O)c3ccc(Cl)cc3)c2O[C@@H]1CN(C)Cc1ccc(-c2ccccc2)cc1
- AC50 [15]: 2.97 µM (active)

SMILES: Cc1[nH]n(-c2ccccc2)c(=O)c1N=Nc1cccc(C(=O)O)c1
- IC50 [11]: > 100 µM (inactive)
- IC50 [12]: 15.2 µM (active)
- IC50 [13]: 21.5 µM (active)
- IC50 [14]: 35.5 µM (active)
- AC50 [16]: 8.07 µM (active)
